Source: patent EP0545103A1, “Insecticidal, acaricidal and molluscicidal 1-(substituted) thioalkylpyrroles” (priority 1991, dated 1993)

Legend:
Plasmopara viticola = test: In vivo fungicidal activity, Grape Downy Mildew (GDM); settings: rate 400 ppm, rating, averaged
Experimental: (§1) Test compounds are dissolved in acetone and diluted with deionized water containing about 0.05% TWEEN 20®, a polyoxyethylene sorbitan monolaurate surfactant manufactured by Atlas Chemical Industries, to give a concentration of 400 ppm. Subsequent dilutions are made with an 0.05% aqueous solution of TWEEN 20®.
(§2) Host plants are sprayed with test solution, dried and inoculated with fungi. When disease symptom development is optimal, the plants are rated for disease control according to the rating scale shown below. Each test contains inoculated treated plants, inoculated untreated plants and a reference standard.
(§3) When more than one test is run, the data are averaged.

Venturia inaequalis = test: In vivo fungicidal activity, Apple Scab (AS); settings: rate 400 ppm, host plants sprayed then inoculated, rating, averaged
Experimental: as §1, §2, §3

[1] = test system: Erysiphe graminis, tritici; test: In vivo fungicidal activity, Wheat Powdery Mildew (WPM); settings: rating, averaged
Experimental: as §1, §2, §3

[2] = test system: Puccinia recondita, tritici; test: In vivo fungicidal activity, Wheat Leaf Rust (WLR); settings: rate 400 ppm, rating, averaged
Experimental: as §1, §2, §3

Cercospora beticola = test: In vivo fungicidal activity, Sugarbeet Cercospora (SBC); settings: rate 400 ppm, rating, averaged
Experimental: as §1, §2, §3

[3] = test system: Empoasca abrupta, adult, western potato leafhopper; test: Western potato leafhopper systemic uptake test; format: in vivo; set-up: key: 0: no effect; 10-25% kill; 26-35% kill; 36-45% kill; 46-55% kill; 56-65% kill; 66-75% kill; 76-85% kill; 86-99% kill; 9: 100% kill; settings: 100 ppm
Experimental: Empoasca abrupta, adult, western potato leafhopper Systemic Uptake
An emulsion containing 0.1 gm of the test material, 0.2 gm of Emulphor EL-620® emulsifier, 10 mL of acetone and 90 mL of water is prepared and diluted 10-fold with water to give a 100 ppm emulsion. Subsequent 10-fold dilutions are made with water as needed. Sieva limabean plants, with the primary leaves expanded to a length of 7-8 cm, are cut off at least 3 cm above the soil level to avoid contamination with soil bacteria which will cause decay of the stem during the test. The cut stem is placed in the test emulsion and wrapped with a bit of cotton to hold the stem off the bottom of the bottle and to limit evaporation. The treated stem is maintained for 3 days at 27°C to allow the test compound to be taken up into the plant. Following this, one leaf is removed from the plant and placed in a 100 x 10 mm petri dish containing a moist filter paper and about 10 adult leafhoppers as described above. Mortality counts are made after 2 days.
(§4) All of the above tests are rated according to the rating scale shown below.

[4] = test system: Tetranychus urticae (OP-resistant strain), 2-spotted spider mite; test: 2-spotted spider mite test, dipped infested limabean plants; format: in vivo; set-up: key: 0: no effect; 10-25% kill; 26-35% kill; 36-45% kill; 46-55% kill; 56-65% kill; 66-75% kill; 76-85% kill; 86-99% kill; 9: 100% kill; settings: for OP-RESISTANT MITES Egg: mite eggs
Experimental: (§5) Test solutions are prepared by dissolving the test compound in a 35% acetone in water mixture to give a concentration of 10,000 ppm. Subsequent dilutions are made with water as needed.
Tetranychus urticae (OP-resistant strain), 2-spotted spider mite
Sieva limabean plants with primary leaves expanded to 7-8 cm are selected and cut back to one plant per pot. A small piece is cut from an infested leaf taken from the main colony and placed on each leaf of the test plants. This is done about 2 hours before treatment to allow the mites to move over to the test plant and to lay eggs. The size of the cut, infested leaf is varied to obtain about 100 mites per leaf. At the time of test treatment, the piece of leaf used to transfer the mites is removed and discarded. The newly mite-infested plants are dipped in the test solution for 3 seconds with agitation and set in the hood to dry. After 2 days one leaf is removed and mortality counts are made. After 5 days, another leaf is removed and observations are made of mortality of the eggs and/or newly emerged nymphs.
as §4

[5] = test system: Spodoptera eridania, 3rd instar larvae, southern armyworm; test: Southern armyworm 3rd instar test, dipped limabean leaf; format: in vivo; settings: for ARMYWORM Day 5: rating at 5 days; for ARMYWORM Day 3: rating at 3 days
Summary of the method: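 Compound dissolved in 35% acetone/water at 10,000 ppm stock, diluted with water. Sieva limabean leaves dipped 3 s, dried, and exposed to ten 3rd instar larvae on damp filter paper. Mortality, reduced feeding and molting interference scored at 3 and 5 days on a rating scale.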

[6] = test system: Empoasca abrupta, adult, western potato leafhopper; test: Western potato leafhopper contact test, dipped limabean leaf; format: in vivo; set-up: key: 0: no effect; 10-25% kill; 26-35% kill; 36-45% kill; 46-55% kill; 56-65% kill; 66-75% kill; 76-85% kill; 86-99% kill; 9: 100% kill
Experimental: as §5
Empoasca abrupta, adult, western potato leafhopper
A Sieva limabean leaf about 5 cm long is dipped in the test solution for 3 seconds with agitation and placed in a hood to dry. The treated leaf is placed in a 100 x 10 mm petri dish containing a moist filter paper and about 10 adult leafhoppers are added. After 2 days, mortality counts are made.
as §4

[7] = test system: Spodoptera eridania, 3rd instar larvae, southern armyworm; test: Southern armyworm systemic uptake (stem systemic) test; format: in vivo; set-up: key: 0: no effect; 10-25% kill; 26-35% kill; 36-45% kill; 46-55% kill; 56-65% kill; 66-75% kill; 76-85% kill; 86-99% kill; 9: 100% kill; settings: cut stem in emulsion 3 days
[8] = test system: Diabrotic undecimpunctata howardi, 3rd instar southern corn rootworm; test: Southern corn rootworm soil test; format: in vivo; set-up: key: 0: no effect; 10-25% kill; 26-35% kill; 36-45% kill; 46-55% kill; 56-65% kill; 66-75% kill; 76-85% kill; 86-99% kill; 9: 100% kill; settings: mortality rating after 6 days
Summary of the method: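 Compound applied in acetone to talc at 1.25 and 0.25 mg active ingredient per jar (about 50 and 10 kg/ha), dried, then mixed with millet seed and moist soil. Ten 3rd instar larvae added per jar; mortality counted at 6 days, with missing larvae scored dead. Results rated on a scale.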

[9] = test system: Aphis fabae, mixed instar, bean aphid; test: Bean aphid spray test on nasturtium; format: in vivo; set-up: key: 0: no effect; 10-25% kill; 26-35% kill; 36-45% kill; 46-55% kill; 56-65% kill; 66-75% kill; 76-85% kill; 86-99% kill; 9: 100% kill; settings: 100 ppm
Experimental: as §5
Aphis fabae, mixed instar, bean aphid
Pots containing single nasturtium plants (Tropaeolum sp.) about 5 cm tall are infested with about 100-200 aphids one day prior to treatment. Each pot is sprayed with the test solution for 2 revolutions of a 4 rpm turntable in a hood, using a #154 DeVilbiss atomizer. The spray tip is held about 15 cm from the plant and the spray directed so as to give complete coverage of the plants and the aphids. The sprayed pots are set on their sides on white enamel trays and mortality estimates are made after 2 days.
as §4

[10] = test system: Heliothis virescens, egg, tobacco budworm; test: Tobacco budworm egg test, dipped cotton leaf and eggs; format: in vivo; set-up: key: 0: no effect; 10-25% kill; 26-35% kill; 36-45% kill; 46-55% kill; 56-65% kill; 66-75% kill; 76-85% kill; 86-99% kill; 9: 100% kill; settings: mortality rating after 3 days
Summary of the method: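 Compound dissolved at 10,000 ppm in 35% aqueous acetone, diluted with water. A cotton leaf and a cheesecloth square with roughly 50-100 eggs aged 6-30 h are each dipped for about 3 s, then combined and kept humid. Mortality counted after 3 days and rated on a scale.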

[11] = test system: Spodoptera eridania, 3rd instar larvae, southern armyworm; test: Southern armyworm 7-day residual test; format: in vivo; settings: R designates Residual: 7-day residual foliage, concentration not given
Summary of the method: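 Compound was dissolved in 35% aqueous acetone (10,000 ppm stock) and diluted with water before treating lima bean leaves. The leaves were aged 7 days under high-intensity greenhouse lamps (14 h day). Third-instar Spodoptera eridania larvae were then assayed on the foliage and rated on a scale.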

[12] = test system: Heliothis virescens, 3rd instar tobacco budworm; test: Tobacco budworm 3rd instar test, dipped cotton cotyledons; format: in vivo; set-up: key: 0: no effect; 10-25% kill; 26-35% kill; 36-45% kill; 46-55% kill; 56-65% kill; 66-75% kill; 76-85% kill; 86-99% kill; 9: 100% kill; settings: mortality rating after 3 days
Experimental: as §5
Heliothis virescens, 3rd instar tobacco budworm
Cotton cotyledons are dipped in the test solution and allowed to dry in a hood. When dry, each is cut into quarters and ten sections are placed individually in 30 mL plastic medicine cups containing a 5-7mm long piece of damp dental wick. One 3rd instar caterpillar is added to each cup and the cup is sealed with MYLAR® film. Treatments are maintained for 3 days before a mortality count and observation of reduction in feeding damage are made.
as §4

[13] = systemic uptake, rating scale 0-9
[14] = 300 ppm, mite nymphs, rating scale 0-9
[15] = 100 ppm, contact, rating scale 0-9

Compound: CC(C)OP(=S)(OC(C)C)SCn1c(Br)c(Br)c(C#N)c1Br [O,O-diisopropyl S-(2,3,5-tribromo-4-cyanopyrrole-1-yl)methyl ester phosphorodithioic acid]
- Disease Control GDM (Plasmopara viticola): 0 (0)
- Disease Control AS (Venturia inaequalis): 0 (0)
- Disease Control WPM ([1]; rate 25 ppm): 0 (0)
- Disease Control WPM ([1]; rate 100 ppm): 4.0
- Disease Control WPM ([1]; rate 400 ppm): 7.0
- Disease Control WLR [2]: 0 (0)
- Disease Control SBC (Cercospora beticola): 0 (0)

Compound: N#Cc1c(Cl)c(C(F)(F)F)n(CSC(=N)N)c1-c1ccc(Cl)cc1 [Example 3]
- LEAFHOPPER Systemic ([3]; cut stem in emulsion 3 days, mortality rating after 2 days): 0
- OP-RESISTANT MITES Nymph ([4]; 10 ppm, rating after 5 days): 0
- OP-RESISTANT MITES Nymph ([4]; 300 ppm, rating after 5 days): 9 (100% kill)
- ARMYWORM Day 5 ([5]; 10 ppm): 9 (100% kill)
- ARMYWORM Day 5 ([5]; 100 ppm): 9 (100% kill)
- ARMYWORM Day 5 ([5]; 1000 ppm): 9 (100% kill)
- LEAFHOPPER Contact ([6]; 10 ppm, mortality rating after 2 days): 9 (100% kill)
- LEAFHOPPER Contact ([6]; 100 ppm, mortality rating after 2 days): 9 (100% kill)
- ARMYWORM Stem Sys [7]: 0
- SOUTHERN CORN ROOTWORM ([8]; 1 (ppm as headed)): 0
- SOUTHERN CORN ROOTWORM ([8]; 10 (ppm as headed)): 0
- SOUTHERN CORN ROOTWORM ([8]; 50 (ppm as headed)): 9 (100% kill)
- APHIDS ([9]; spray, mortality rating after 2 days): 0
- TOBACCO BUDWORM Egg ([10]; 100 ppm): 0
- TOBACCO BUDWORM Egg ([10]; 1000 ppm): 5 (56-65% kill)

Compound: CN(C)C(=S)SCn1c(-c2ccc(Cl)c(Cl)c2)c(Br)c(C(F)(F)F)c1C(F)(F)F [Example 33]
- LEAFHOPPER Systemic [3, 13]: 0
- OP-RESISTANT MITES Adult ([4]; 10 ppm, rating scale 0-9): 0
- OP-RESISTANT MITES Egg ([4]; 10 ppm, rating scale 0-9): 0
- OP-RESISTANT MITES Nymph ([4]; 10 ppm, mite nymphs, rating scale 0-9): 0
- OP-RESISTANT MITES Adult ([4]; 100 ppm, rating scale 0-9): 0
- OP-RESISTANT MITES Egg ([4]; 100 ppm, rating scale 0-9): 8 (86-99% kill)
- OP-RESISTANT MITES Nymph ([4]; 100 ppm, mite nymphs, rating scale 0-9): 0
- OP-RESISTANT MITES Adult ([4]; 300 ppm, rating scale 0-9): 7 (76-85% kill)
- OP-RESISTANT MITES Egg ([4]; 300 ppm, rating scale 0-9): 0
- OP-RESISTANT MITES Nymph [4, 14]: 0
- ARMYWORM Day 3 ([5]; 10 ppm): 9 (100% kill)
- ARMYWORM Day 5 ([5]; 10 ppm): 9 (100% kill)
- ARMYWORM Day 3 ([5]; 100 ppm): 9 (100% kill)
- ARMYWORM Day 5 ([5]; 100 ppm): 9 (100% kill)
- ARMYWORM Day 3 ([5]; 1000 ppm): 9 (100% kill)
- ARMYWORM Day 5 ([5]; 1000 ppm): 9 (100% kill)
- LEAFHOPPER Contact ([6]; 10 ppm, contact, rating scale 0-9): 0
- LEAFHOPPER Contact [6, 15]: 8 (86-99% kill)
- ARMYWORM Day 3 R ([11]; rating at 3 days): 9 (100% kill)
- ARMYWORM Day 5 R ([11]; rating at 5 days): 9 (100% kill)
- ARMYWORM Stem Sys [7]: 0
- APHIDS ([9]; rating scale 0-9): 0
- TOBACCO BUDWORM Egg ([10]; 1000 ppm): 0

Compound: CC(=O)SCn1c(Br)c(Br)c(C#N)c1Br [Example 34]
- LEAFHOPPER Systemic [3, 13]: 0
- OP-RESISTANT MITES Adult ([4]; 300 ppm, rating scale 0-9): 0
- OP-RESISTANT MITES Egg ([4]; 300 ppm, rating scale 0-9): 0
- OP-RESISTANT MITES Nymph [4, 14]: 0
- LEAFHOPPER Contact [6, 15]: 0
- TOBACCO BUDWORM 3rd Instar ([12]; 100 ppm): 0
- TOBACCO BUDWORM 3rd Instar ([12]; 1000 ppm): 9 (100% kill)
- ARMYWORM Stem Sys [7]: 0
- SOUTHERN CORN ROOTWORM ([8]; 50 (ppm as headed)): 0
- APHIDS ([9]; rating scale 0-9): 8 (86-99% kill)
- TOBACCO BUDWORM Egg ([10]; 1000 ppm): 8 (86-99% kill)
